Values of other authors in patent US20060142288A1, “Combinations and methods for headaches” (priority 2004, published 2006).

Assays:
[1] = target: T1, canine COX-3 (Canis lupus familiaris, UniProt Q8HZR1); conditions: canine COX-3 compared with murine COX-1 and COX-2
T1 sequence (Q8HZR1 1-633 isoform Q8HZR1-2): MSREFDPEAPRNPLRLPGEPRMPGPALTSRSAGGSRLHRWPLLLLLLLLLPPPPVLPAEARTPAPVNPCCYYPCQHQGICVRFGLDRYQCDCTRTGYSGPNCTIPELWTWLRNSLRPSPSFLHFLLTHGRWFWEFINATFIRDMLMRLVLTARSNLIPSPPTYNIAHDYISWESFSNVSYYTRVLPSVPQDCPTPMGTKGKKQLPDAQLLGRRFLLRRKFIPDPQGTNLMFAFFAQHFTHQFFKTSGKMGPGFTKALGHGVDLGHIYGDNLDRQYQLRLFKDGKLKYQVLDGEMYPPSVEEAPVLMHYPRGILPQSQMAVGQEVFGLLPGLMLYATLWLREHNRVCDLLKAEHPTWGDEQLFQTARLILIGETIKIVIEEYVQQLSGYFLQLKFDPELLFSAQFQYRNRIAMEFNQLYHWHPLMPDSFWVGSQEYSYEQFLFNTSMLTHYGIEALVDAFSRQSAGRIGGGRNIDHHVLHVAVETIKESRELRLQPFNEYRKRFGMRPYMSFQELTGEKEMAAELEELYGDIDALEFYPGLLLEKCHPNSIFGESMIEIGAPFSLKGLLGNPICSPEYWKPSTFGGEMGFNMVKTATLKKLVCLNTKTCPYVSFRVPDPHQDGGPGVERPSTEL

[2] = 500 mg daily, six year trial
[3] = 650 mg/day, migraine patients
[4] = 13.5 mg/kg/day or ~1 g per day
[5] = ASA 500 mg TID, metoprolol in the same study

Question: Which “selective inhibition of COX-3” value [1] does the source give for `Cc1c(N(C)CS(=O)(=O)[O-])c(=O)n(-c2ccccc2)n1C.[Na+]` [dipyrone] here?
Answer: Its value is “selectively inhibit”.

Question: With `CC(=O)Oc1ccccc1C(=O)O` [ASA, acetylsalicyclic acid] as the compound, how does the “reduction of the incidence of migraine” value [2] read?
Answer: Its value is 30%.

Question: What about the “patients with a reduction of more than 50% in headache frequency” value [3] of the same compound?
Answer: Its value is 9 of 12.

Question: What about the overall migraine frequency (500 mg TID, p<0.001) of the same compound?
Answer: Its overall migraine frequency is “reduced significantly”.

Question: What about the “subjects with a reduction of attacks >50% (number of subjects)” value [5] of the same compound?
Answer: Its value is 3 of 22.

Question: What about the “subjects with a reduction of attacks >50% (percent of subjects)” value [5] of the same compound?
Answer: The value was 14%.

Question: And the “frequency, severity and duration of migraine attacks” value [4]?
Answer: The value was “significantly decrease”.

Question: Which “selective inhibition of COX-3” value [1] does the source give for `Cc1cc(=O)n(-c2ccccc2)n1C` [antipyrine] here?
Answer: The value was “selectively inhibit”.

Question: Which “selective inhibition of COX-3” value [1] does the source give for `CC(=O)Nc1ccc(O)cc1` [acetaminophen] here?
Answer: The value was “selectively inhibit”.

Question: For `CCOc1ccc(NC(C)=O)cc1` [phenacetin], which “selective inhibition of COX-3” value [1] is on record?
Answer: Its value is “selectively inhibit”.
